We go through five molecules from patent US20200261470A1, “COMBINATION TREATMENT WITH ANTIBODY-DRUG CONJUGATES AND PARP INHIBITORS” (IMMUNOGEN, INC., priority 2016, published 2020).

The structures appear in SMILES notation.

Assay [1] concerns HL60 cells. Kind of assay: Proliferation measured with WST-8 reagent, HL60 cells. It is filed as cell-based. As to conditions: Homo sapiens, HL-60; HL60 cell line, single agent; read-out: IC50 values for PARP inhibitors in AML cell lines. As for the experimental part: (§1) Proliferation was measured following incubation with WST-8 reagent. Synergistic/additive effects were calculated using Compusyn software at varying drug concentrations. Flow cytometry for apoptosis, viability, DNA damage/repair, and cell cycle effects following combination versus single drug treatment were also performed.

Assay [2] has as its system HEL-luc cells. Kind of assay: Proliferation measured with WST-8 reagent, HEL-luc cells. Particulars: for IC50: Homo sapiens, HELluc cell line, single agent, read-out: IC50 values for PARP inhibitors in AML cell lines. The format is cell-based, human. As for the experimental part: as §1
In assay [3] the test system is human CD33+ AML (HEL-luciferase) xenografts. It is filed as in vivo. As to conditions: IMGN779 15 mcg/kg, olaparib 100 mg/kg, alone or combined.
Protocol: In these experiments, stably transfected luciferase-positive human AML cells (HEL) characterized by high hCD33 expression levels were injected via tail vein into sublethally irradiated 6-8 week old SCID mice. […] In vivo systemic leukemia disease burden was evaluated weekly by small animal bioluminescent imaging. Toxicity was determined by clinical examination and weight measurements throughout the experiment. Overall study endpoints were (a) time to overall morbidity/mortality and/or (b) change in leukemia disease burden as compared with vehicle-treated mice or mice treated with single agent therapy. […] Simple stastical analyses will be performed utilizing the Stat Prism statistical software.
For assay [4], the system named is Human CD33+ AML cell lines (HEL, MV4-11, and HL60). Kind of assay: Proliferation by WST-8 reagent with Compusyn synergy analysis, CD33+ AML cell lines. Particulars: single agent, all CD33+ human AML cell lines tested.
Protocol: Proliferation was measured by WST-8 reagent. Synergistic/additive effects were calculated using Compusyn software. Flow cytometry was performed to assess apoptosis, cell viability, and cell cycle effects.
Assay [5] relates to HEL cells. Kind of assay: Cell death after DNA-damaging radiation exposure in the presence of olaparib. The format is cell-based, human. Particulars: graded concentrations of olaparib; 0.5 Gy and 0.75 Gy radiation.

With `NC(=O)c1cccc2cn(-c3ccc([C@@H]4CCCNC4)cc3)nc12` [Niraparib, niraparib], the values for the IC50 in assay [1] and in assay [2] were 2.5 µM and 7.3 µM, respectively.

Regarding `O=C(c1cc(Cc2n[nH]c(=O)c3ccccc23)ccc1F)N1CCN(C(=O)C2CC2)CC1` [Olaparib, olaparib], the IC50 in assay [1] was determined as 8.9 µM; in assay [2] it was 7.4 µM. Further, the “median overall survival from inoculation” value in assay [3] is reported as 33.7 days. Besides, the “growth inhibition in vitro” value in assay [4] is listed as “dose-dependent grown inhibition”. Moreover, the “cell death after DNA-damaging radiation exposure” value in assay [5] was “correlation in increase cell death and apoptosis with the increase in concentration of olaparib”.

For the molecule `CNCc1ccc(-c2[nH]c3cc(F)cc4c3c2CCNC4=O)cc1` [Rucaparib, rucaparib], the figures for the half-maximal inhibitory concentration (IC50) in assay [1] and in assay [2] were 75 µM and 39 µM, respectively.

As for `Cn1ncnc1[C@H]1c2n[nH]c(=O)c3cc(F)cc(c23)N[C@@H]1c1ccc(F)cc1` [Talazoparib, talazoparib], the IC50 was determined as 0.2 µM in assay [1] and 0.4 µM in assay [2]. Further, the “relative potency among PARP inhibitors” value in assay [2] (HEL-luc and HL60 cell lines) is “most potent PARP inhibitor”. In assay [2] (PARP inhibitor 0.8 μM, IMGN779 800 pM, compared with olaparib and niraparib), the “surviving fraction of cells” value was “greatest decrease in surviving fraction of cells”.

Take `C[C@]1(c2nc3c(C(N)=O)cccc3[nH]2)CCCN1` [Vellparib, veliparib]: the IC50 in assay [1] is 88 µM; in assay [2] it was above 100 µM.
